Earlier results as cited in patent EP1336411A1, “Compositions and methods for improving enzyme replacement therapy of lysosomal storage diseases” (Academisch Medisch Centrum bij de Universiteit van Amsterdam, priority 2002, dated 2003).

Molecular target: alpha-Galactosidase A (Homo sapiens, UniProt P06280)
Details: read-out: apparent Km; artificial substrate 4-methylumbelliferyl-alpha-D-galactopyranoside; pH 4.6 (maximal activity)

Sequence of alpha-Galactosidase A (P06280 32-429): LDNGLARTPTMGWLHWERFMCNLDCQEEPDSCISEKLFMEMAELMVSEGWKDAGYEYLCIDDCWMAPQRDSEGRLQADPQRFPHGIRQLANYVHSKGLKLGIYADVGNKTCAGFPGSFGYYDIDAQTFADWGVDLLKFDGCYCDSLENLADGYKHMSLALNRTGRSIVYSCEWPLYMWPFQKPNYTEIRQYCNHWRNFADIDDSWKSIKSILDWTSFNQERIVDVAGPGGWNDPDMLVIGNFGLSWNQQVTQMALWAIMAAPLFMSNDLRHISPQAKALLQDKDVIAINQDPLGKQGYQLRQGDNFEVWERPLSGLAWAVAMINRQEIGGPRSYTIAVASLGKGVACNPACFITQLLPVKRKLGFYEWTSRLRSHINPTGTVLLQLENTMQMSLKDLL

SMILES: Cc1cc(=O)oc2cc(O[C@H]3O[C@H](CO)[C@H](O)[C@H](O)[C@H]3O)ccc12 [4-methylumbelliferyl-alpha-D-galactopyranoside]
- Km: 2000 µM
